From BigSolDB 2.1

Cc1ccc(S(=O)(=O)[O-])cc1Cl.[Na+]
Settings	solubility (mole fraction)
in DMF, 280.6 K	0.0203
in DMF, 286.3 K	0.0206
in DMF, 291.3 K	0.0208
in DMF, 297.6 K	0.0212
in DMF, 304.8 K	0.0216
in DMF, 310.7 K	0.0223
in DMF, 314.8 K	0.0228
in DMF, 319 K	0.0235
in DMF, 322.1 K	0.024
in DMF, 327.6 K	0.0252
in DMF, 333.3 K	0.0268
in DMSO, 294 K	0.086
in DMSO, 299.6 K	0.0868
in DMSO, 304.9 K	0.0878
in DMSO, 310.6 K	0.0887
in DMSO, 314.5 K	0.0894
in DMSO, 319.2 K	0.0902
in DMSO, 323.5 K	0.0912
in DMSO, 330.2 K	0.0929
in DMSO, 335.2 K	0.0947
in formic acid, 283 K	0.037
in formic acid, 288.9 K	0.0383
in formic acid, 295.9 K	0.0398
in formic acid, 301.4 K	0.0415
in formic acid, 307.3 K	0.0431
in formic acid, 313 K	0.0446
in formic acid, 319.5 K	0.0458
in formic acid, 324.9 K	0.0475
in formic acid, 331.1 K	0.0491
in formic acid, 335.5 K	0.0503
in methanol, 287.1 K	0.00409
in methanol, 293 K	0.00447
in methanol, 297.1 K	0.0047
in methanol, 302.6 K	0.00498
in methanol, 306.1 K	0.00524
in methanol, 311.8 K	0.0055
in methanol, 316.7 K	0.00579
in methanol, 321.5 K	0.00607
in methanol, 327 K	0.00637
in methanol, 333.1 K	0.0067
in water, 281 K	0.00416
in water, 284 K	0.00437
in water, 288.1 K	0.00478
in water, 292.2 K	0.0053
in water, 296.5 K	0.00592
in water, 301.2 K	0.00661
in water, 305.6 K	0.00733
in water, 310.7 K	0.00835
in water, 314.6 K	0.0092
in water, 318.7 K	0.0101
in water, 322.4 K	0.0111
in water, 326.2 K	0.0122
in water, 331.1 K	0.0139
in water, 335.1 K	0.0154
